Measurements from patent publication US12729377B2, “RNAi agents and compositions for inhibiting expression of angiopoietin-like 3 (ANGPTL3), and methods of use” (Arrowhead Pharmaceuticals, Inc., priority 2017, dated 2026).
In the oligonucleotide strings, read from the 5' end, every base follows the letter of its sugar. An asterisk marks phosphorothioate; unmarked linkages are phosphodiester. Other units and linkages are bracketed, terminal groups are in braces. A string of capitals states the bases alone. {NAG37} = tridentate N-acetyl-galactosamine targeting ligand, structure (NAG37)s; [invAb] = inverted abasic unit; m = 2'-O-methyl; f = 2'-fluoro

Key:
ANGPTL3 gene = test: Example 11: dose response, serum total cholesterol in mice; format: in vivo, C57bl/6 mice
Protocol: To assess the dose response of ANGPTL3 RNAi agent AD05488, six- to eight-week-old female C57bl/6 mice were used. Pre-dose serum samples were taken at day −1 after a four hour fast. At day 1, each mouse was given a single subcutaneous administration of 200 μl containing the respective mg/kg dose of an ANGPTL3 RNAi agent in D5W (dextrose in 5% water), or control (D5W) with no RNAi agent, according to the dosing groups recited in Table 53:
The RNAi agent tested (AD05488) included a modified sequence and an N-acetyl-galactosamine-containing targeting ligand conjugated to the 5′ terminal end of the sense strand. (See Tables 3, 4, and 5 for modified sequences and targeting ligand structures). The injections were performed between the skin and muscle (i.e. subcutaneous injections) into the loose skin over the neck and shoulder area. Four (4) mice in each group were tested (n=4). Serum was collected on days 8, 15, 22, and 29. Mice were fasted for four hours prior to each collection. ANGPTL3 protein levels in serum were measured by ELISA assay (R&D Systems), according to the manufacturer's recommendations. Triglycerides, total cholesterol, high-density lipoprotein (HDL), and low-density lipoprotein (LDL) in serum were measured on a Cobas® Integra 400 (Roche Diagnostics), according to the manufacturer's recommendations.
The ANGPTL3 protein levels, triglyceride levels, total cholesterol levels, HDL levels, and LDL levels for each animal were normalized. For normalization, the level of ANGPTL3 protein, triglyceride, HDL, and total cholesterol, respectively, for each animal at a time point, was divided by the pre-treatment level of expression in that animal (in this case at day −1) to determine the ratio of expression “normalized to pre-treatment.” Expression at a specific time point was then normalized to the D5W control group by dividing the “normalized to pre-treatment” ratio for an individual animal by the mean “normalized to pretreatment” ratio of all mice in the D5W control group.

ANGPTL3 protein = test: Example 14: RNAi agent and statin, serum ANGPTL3 protein by ELISA in LDLR knockout mice; format: in vivo, LDLR KO mice
From the text: To evaluate the effect of co-administration of RNAi agents and statins in a disease model, LDLR KO mice were commercially obtained (The Jackson Laboratory). For three weeks prior to the onset of the study, forty-one (41) male 7 to 8 week old LDLR KO mice were placed on a high fat (“western”) diet (Teklad Custom Diets TD.88137), and remained on that diet throughout the duration of the study. Pre-dose serum samples were taken on study Day 1 after a four hour fast. The dosing regimen for the study is recited in the following Table 72:
• Mice were treated at 40 mg/kg for the first 11 days, then switched to 20 mg/kg thereafter.
The vehicle used for the oral gavage in the study was a 1:1 mixture of Ora-Plus®: Ora-Sweet® solution, which were acquired commercially. For the preparation of the atorvastatin oral gavage administrations, the respective desired dose of atorvastatin was first dissolved in sterile water (0.3 mL water per 1 mL of desired formulation) and vortexed until smooth, followed by the addition of a mixture of 1:1 Ora-Plus®: Ora-Sweet® solution (0.7 mL vehicle per 1 mL of desired formulation) and vortexed. On day 1 and for each day thereafter an oral gavage dose was administered for each of the Groups except for Group 2. On Day 23, Groups 1, 2, 3, and 4 received a single subcutaneous administration of 2.5 mg/kg dose ([…] solution) of an ANGPTL3 RNAi agent in D5W (dextrose in 5% water), or vehicle control (D5W) with no RNAi agent.
The RNAi agent tested (AD05488) included a modified sequence and an N-acetyl-galactosamine-containing targeting ligand conjugated to the 5′ terminal end of the sense strand. (See Tables 3, 4, and 5 for modified sequences and targeting ligand structures). The injections were performed between the skin and muscle (i.e. subcutaneous injections) into the loose skin over the neck and shoulder area. Serum was collected on days 8, 15, 22 (pre-RNAi agent injection), 29, 36, 43, and 50. LDLR KO mice were fasted for four hours prior to each collection.
ANGPTL3 protein levels in serum were measured by ELISA assay (R&D Systems), according to the manufacturer's recommendations. Among other biomarkers, triglycerides, total cholesterol, and low-density lipoprotein (LDL) in serum were measured on a Cobas® Integra 400 (Roche Diagnostics), according to the manufacturer's recommendations.
The ANGPTL3 protein levels, triglyceride levels, total cholesterol levels, HDL levels, and LDL levels for each animal were normalized. For normalization, respective levels of ANGPTL3 protein, TG, total cholesterol, or LDL for each animal at a time point was divided by the pre-treatment level of expression in that animal (in this case pre-dose levels on Day 1) to determine the ratio of expression “normalized to pre-treatment.” Data from the study set forth in this Example are shown in the following Tables 73-76: […]

In the case of “AD05488: RNAi agent duplex: antisense AM07235-AS, sense AM07234-SS (antisense mU*fA*mC*fUmGfAmUfCmAfAmAfUmAfUmGfUmUfGmAfG*mC; sense {NAG37}*[invAb]*mGmCmUmCmAmAmCmAfUfAfUmUmUmGmAmUmCmAmGmUmA*[invAb])”, the “Avg Total Chol Normalized to Pre-Treatment and Control” value (“Avg Total Chol Normalized” for short) (ANGPTL3 gene; 0.05 mg/kg single sc day 1, Day 8) was 0.856, the “Avg Total Chol Normalized” value (ANGPTL3 gene; 0.05 mg/kg single sc day 1, Day 15) was 1.090 and the “Avg Total Chol Normalized” value (ANGPTL3 gene; 0.05 mg/kg single sc day 1, Day 22) was 0.946. The “Avg Total Chol Normalized” value (ANGPTL3 gene; 0.05 mg/kg single sc day 1, Day 29) was 0.915, the “Avg Total Chol Normalized” value (ANGPTL3 gene; 0.1 mg/kg single sc day 1, Day 8) was 0.820 and the “Avg Total Chol Normalized” value (ANGPTL3 gene; 0.1 mg/kg single sc day 1, Day 15) was 0.974. For the same substance, the “Avg Total Chol Normalized” value (ANGPTL3 gene; 0.1 mg/kg single sc day 1, Day 22) was 0.785, the “Avg Total Chol Normalized” value (ANGPTL3 gene; 0.1 mg/kg single sc day 1, Day 29) was 0.945 and the “Avg Total Chol Normalized” value (ANGPTL3 gene; 0.5 mg/kg single sc day 1, Day 8) was 0.740. The “Avg Total Chol Normalized” value (ANGPTL3 gene; 0.5 mg/kg single sc day 1, Day 15) was 0.918, the “Avg Total Chol Normalized” value (ANGPTL3 gene; 0.5 mg/kg single sc day 1, Day 22) was 0.897 and the “Avg Total Chol Normalized” value (ANGPTL3 gene; 0.5 mg/kg single sc day 1, Day 29) was 0.883. The “Avg Total Chol Normalized” value (ANGPTL3 gene; 1.0 mg/kg single sc day 1, Day 8) was 0.610, the “Avg Total Chol Normalized” value (ANGPTL3 gene; 1.0 mg/kg single sc day 1, Day 15) was 0.816 and the “Avg Total Chol Normalized” value (ANGPTL3 gene; 1.0 mg/kg single sc day 1, Day 22) was 0.857. For the same substance, the “Avg Total Chol Normalized” value (ANGPTL3 gene; 1.0 mg/kg single sc day 1, Day 29) was 0.920, the “Avg Total Chol Normalized” value (ANGPTL3 gene; 2.5 mg/kg single sc day 1, Day 8) was 0.647 and the “Avg Total Chol Normalized” value (ANGPTL3 gene; 2.5 mg/kg single sc day 1, Day 15) was 0.832. For the same substance, the “Avg Total Chol Normalized” value (ANGPTL3 gene; 2.5 mg/kg single sc day 1, Day 22) was 0.772, the “Avg Total Chol Normalized” value (ANGPTL3 gene; 2.5 mg/kg single sc day 1, Day 29) was 0.694 and the “Avg Total Chol Normalized” value (ANGPTL3 gene; 5.0 mg/kg single sc day 1, Day 8) was 0.583. For the same substance, the “Avg Total Chol Normalized” value (ANGPTL3 gene; 5.0 mg/kg single sc day 1, Day 15) was 0.787, the “Avg Total Chol Normalized” value (ANGPTL3 gene; 5.0 mg/kg single sc day 1, Day 22) was 0.790 and the “Avg Total Chol Normalized” value (ANGPTL3 gene; 5.0 mg/kg single sc day 1, Day 29) was 0.783. The “Avg ANGPTL3 normalized to pre-treatment” value (ANGPTL3 protein; Group 2: no gavage, 2.5 mg/kg AD05488 SC on day 23, Day 8 (pre-RNAi agent injection)) was 1.419, the “Avg ANGPTL3 normalized to pre-treatment” value (ANGPTL3 protein; Group 2: no gavage, 2.5 mg/kg AD05488 SC on day 23, Day 15 (pre-RNAi agent injection)) was 1.584 and the “Avg ANGPTL3 normalized to pre-treatment” value (ANGPTL3 protein; Group 2: no gavage, 2.5 mg/kg AD05488 SC on day 23, Day 22 (pre-RNAi agent injection)) was 1.658. For the same substance, the “Avg ANGPTL3 normalized to pre-treatment” value (ANGPTL3 protein; Group 2: no gavage, 2.5 mg/kg AD05488 SC on day 23, Day 29) was 0.023, the “Avg ANGPTL3 normalized to pre-treatment” value (ANGPTL3 protein; Group 2: no gavage, 2.5 mg/kg AD05488 SC on day 23, Day 36) was 0.012 and the “Avg ANGPTL3 normalized to pre-treatment” value (ANGPTL3 protein; Group 2: no gavage, 2.5 mg/kg AD05488 SC on day 23, Day 43) was 0.020. For the same substance, the “Avg ANGPTL3 normalized to pre-treatment” value (ANGPTL3 protein; Group 2: no gavage, 2.5 mg/kg AD05488 SC on day 23, Day 50) was 0.026, the “Avg ANGPTL3 normalized to pre-treatment” value (ANGPTL3 protein; Group 3: 10 mg/kg daily oral gavage atorvastatin, 2.5 mg/kg AD05488 on day 23, Day 8 (pre-RNAi agent injection)) was 1.597 and the “Avg ANGPTL3 normalized to pre-treatment” value (ANGPTL3 protein; Group 3: 10 mg/kg daily oral gavage atorvastatin, 2.5 mg/kg AD05488 on day 23, Day 15 (pre-RNAi agent injection)) was 1.765. For the same substance, the “Avg ANGPTL3 normalized to pre-treatment” value (ANGPTL3 protein; Group 3: 10 mg/kg daily oral gavage atorvastatin, 2.5 mg/kg AD05488 on day 23, Day 22 (pre-RNAi agent injection)) was 1.681, the “Avg ANGPTL3 normalized to pre-treatment” value (ANGPTL3 protein; Group 3: 10 mg/kg daily oral gavage atorvastatin, 2.5 mg/kg AD05488 on day 23, Day 29) was 0.015 and the “Avg ANGPTL3 normalized to pre-treatment” value (ANGPTL3 protein; Group 3: 10 mg/kg daily oral gavage atorvastatin, 2.5 mg/kg AD05488 on day 23, Day 36) was 0.005. The “Avg ANGPTL3 normalized to pre-treatment” value (ANGPTL3 protein; Group 3: 10 mg/kg daily oral gavage atorvastatin, 2.5 mg/kg AD05488 on day 23, Day 43) was 0.007, the “Avg ANGPTL3 normalized to pre-treatment” value (ANGPTL3 protein; Group 3: 10 mg/kg daily oral gavage atorvastatin, 2.5 mg/kg AD05488 on day 23, Day 50) was 0.010 and the “Avg ANGPTL3 normalized to pre-treatment” value (ANGPTL3 protein; Group 4: 20 mg/kg* daily oral gavage atorvastatin (40 mg/kg first 11 days), 2.5 mg/kg AD05488 on day 23, Day 8 (pre-RNAi agent injection)) was 1.683. The “Avg ANGPTL3 normalized to pre-treatment” value (ANGPTL3 protein; Group 4: 20 mg/kg* daily oral gavage atorvastatin (40 mg/kg first 11 days), 2.5 mg/kg AD05488 on day 23, Day 15 (pre-RNAi agent injection)) was 1.999, the “Avg ANGPTL3 normalized to pre-treatment” value (ANGPTL3 protein; Group 4: 20 mg/kg* daily oral gavage atorvastatin (40 mg/kg first 11 days), 2.5 mg/kg AD05488 on day 23, Day 22 (pre-RNAi agent injection)) was 1.675 and the “Avg ANGPTL3 normalized to pre-treatment” value (ANGPTL3 protein; Group 4: 20 mg/kg* daily oral gavage atorvastatin (40 mg/kg first 11 days), 2.5 mg/kg AD05488 on day 23, Day 29) was 0.022. The “Avg ANGPTL3 normalized to pre-treatment” value (ANGPTL3 protein; Group 4: 20 mg/kg* daily oral gavage atorvastatin (40 mg/kg first 11 days), 2.5 mg/kg AD05488 on day 23, Day 36) was 0.004, the “Avg ANGPTL3 normalized to pre-treatment” value (ANGPTL3 protein; Group 4: 20 mg/kg* daily oral gavage atorvastatin (40 mg/kg first 11 days), 2.5 mg/kg AD05488 on day 23, Day 43) was 0.005 and the “Avg ANGPTL3 normalized to pre-treatment” value (ANGPTL3 protein; Group 4: 20 mg/kg* daily oral gavage atorvastatin (40 mg/kg first 11 days), 2.5 mg/kg AD05488 on day 23, Day 50) was 0.010. The “reduction in ANGPTL3 protein levels” value (ANGPTL3 protein; single 2.5 mg/kg subcutaneous on Day 23, LDLR KO mice on high fat diet) was “clear reduction”.
